Drawing on the SangsterLogP compilation, this text covers logD for 15 compounds.

The series in a line: method code SF-HPLC, from DOI: 10.1016/j.bmc.2003.11.030, PMID: 14759727.

On to `CCCCc1ccc2[nH]c(NCCCc3c[nH]cn3)nc2c1`, for which, for the setting “pH 11.0”, the logD (usually the decadic logarithm of the distribution of all forms, ionised or not, between an organic phase and buffer at a given pH) stood at 3.93.

In turn, `FC(F)(F)c1ccc2[nH]c(NCCCc3c[nH]cn3)nc2c1` came in with a logD (pH 7.4) of 3.03. On to `Nc1ccc2[nH]c(NCCc3c[nH]cn3)nc2c1`, for which the logD (pH 11.0) turned out to be 0.01. Take `Clc1ccc2[nH]c(NCCc3c[nH]cn3)nc2c1`: the logD (pH 7.4) came to 2.31. Compound `c1nc(CCNc2nc3cc4c(cc3[nH]2)OCO4)c[nH]1` displayed a log distribution coefficient (logD) (pH 11.0) of 1.44. Under “pH 11.0”, `COc1ccc2[nH]c(NCCc3c[nH]cn3)nc2c1` yielded a logD of 1.43.

For `c1ccc2[nH]c(NCCc3c[nH]cn3)nc2c1`, the logD (pH 11.0) was found to be 1.49. Turning to `CCOC(=O)c1ccc2[nH]c(NCCc3c[nH]cn3)nc2c1`, the logD (pH 7.4) was 2.28. On to `c1ccc2[nH]c(NCCCc3cnc[nH]3)nc2c1`, for which the logD (pH 11.0) stood at 1.78.

With `CCCCc1ccc2[nH]c(NCCc3c[nH]cn3)nc2c1`, for the setting “pH 11.0”, the logD was 3.64. In turn, `Nc1ccc2[nH]c(NCCCc3c[nH]cn3)nc2c1` returned a logD (pH 11.0) of 0.17. `Cc1ccc2[nH]c(NCCCc3c[nH]cn3)nc2c1`: for the setting “pH 11.0”, the logD came to 2.26. With `FC(F)(F)c1ccc2[nH]c(NCCc3c[nH]cn3)nc2c1`, under “pH 7.4”, the logD is 2.82. As for `CNC(=O)c1ccc2[nH]c(NCCc3c[nH]cn3)nc2c1`, the logD (pH 11.0) was 0.48. Regarding `O=[N+]([O-])c1ccc2[nH]c(NCCc3c[nH]cn3)nc2c1`, under “pH 7.4”, the logD came out at 1.81.
